According to US7482379B2, “Propenoyl hydrazides” (priority 2004, dated 2009):
Peptide text beside a SMILES is read from it. * marks the point of attachment. AMC = Cc1cc(=O)oc2cc(N*)ccc12; Cbz = O=C(OCc1ccccc1)*

How the values were obtained:
Gingipain K = Gingipain K (Porphyromonas gingivalis, UniProt Q51817); assay: biochemical; format: biochemical; settings: for k2 Gingipain K: Table 3, Suc-Ala-Phe-Lys-AMC substrate, pH 8.0; for kinact/KI: pH 8, read-out: kobs/[I] Gingipain K
Gingipain R = Gingipain R inhibition; format: biochemical; settings: Table 3
Clostripain = Clostripain (Hathewaya histolytica, UniProt P09870); settings: Table 3; Z-Phe-Arg-AMC substrate; pH 7.6
Chain of Clostripain (P09870 51-526): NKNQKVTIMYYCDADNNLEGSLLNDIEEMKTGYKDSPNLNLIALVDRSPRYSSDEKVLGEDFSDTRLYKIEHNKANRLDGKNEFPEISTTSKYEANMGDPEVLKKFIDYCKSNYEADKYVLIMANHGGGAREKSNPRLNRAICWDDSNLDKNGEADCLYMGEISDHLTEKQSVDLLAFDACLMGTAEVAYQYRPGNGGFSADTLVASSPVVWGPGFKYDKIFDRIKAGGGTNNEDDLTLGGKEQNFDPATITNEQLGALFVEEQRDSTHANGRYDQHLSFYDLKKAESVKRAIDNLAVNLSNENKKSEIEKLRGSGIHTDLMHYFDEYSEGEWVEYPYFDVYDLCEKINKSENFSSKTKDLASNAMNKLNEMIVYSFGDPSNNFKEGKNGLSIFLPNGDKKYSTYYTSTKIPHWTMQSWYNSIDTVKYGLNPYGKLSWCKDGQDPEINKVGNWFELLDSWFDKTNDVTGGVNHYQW
Description: Clostripain. […] All data obtained was processed by pseudo-first order kinetics,

Cathepsin B [1] = molecular target: T1, Cathepsin B (Homo sapiens, UniProt P07858); settings: irreversible inhibition; background art; cited from earlier work
cathepsin L = cathepsin L (Homo sapiens, UniProt P07711); settings: irreversible inhibition; background art; cited from earlier work
Chain of cathepsin L (P07711 114-333, species assumed): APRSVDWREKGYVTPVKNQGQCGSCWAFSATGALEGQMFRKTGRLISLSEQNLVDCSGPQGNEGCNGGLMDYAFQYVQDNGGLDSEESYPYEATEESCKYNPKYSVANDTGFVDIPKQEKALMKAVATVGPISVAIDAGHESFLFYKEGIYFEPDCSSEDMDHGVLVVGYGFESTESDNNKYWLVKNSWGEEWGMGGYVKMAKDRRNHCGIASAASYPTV

clan CD proteases = settings: background art; cited from earlier work
S. mansoni legumain [2] = molecular target: S. mansoni legumain (Schistosoma mansoni, UniProt P09841, N192C); assay: S. mansoni legumain (SmAE) inhibition assay; format: biochemical
Chain of S. mansoni legumain (Schistosoma mansoni, UniProt P09841, N192C) (P09841 32-291 N192C): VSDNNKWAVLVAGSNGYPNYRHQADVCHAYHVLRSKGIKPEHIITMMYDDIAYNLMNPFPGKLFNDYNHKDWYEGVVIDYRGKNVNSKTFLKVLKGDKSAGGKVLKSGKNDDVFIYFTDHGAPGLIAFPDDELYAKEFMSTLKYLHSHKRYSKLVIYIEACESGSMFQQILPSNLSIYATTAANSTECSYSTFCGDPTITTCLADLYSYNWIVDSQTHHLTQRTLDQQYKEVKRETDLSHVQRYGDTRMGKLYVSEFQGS

Papain = molecular target: T2, Papain (Carica papaya, UniProt P00784); assay: Papain incubation inhibition assay; format: biochemical; settings: for kinact/KI: pH 7.5, read-out: kobs/[I] Papain
T2 sequence (P00784 134-345): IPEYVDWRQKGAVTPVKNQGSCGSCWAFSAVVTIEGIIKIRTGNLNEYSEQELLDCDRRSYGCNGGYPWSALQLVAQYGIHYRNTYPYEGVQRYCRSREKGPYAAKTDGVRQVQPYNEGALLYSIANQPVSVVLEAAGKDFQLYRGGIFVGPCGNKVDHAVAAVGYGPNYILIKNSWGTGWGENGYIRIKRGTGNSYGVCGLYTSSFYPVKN
Protocol: Pseudo first-order inactivation rate constants were obtained from plots of ln vt/vo versus time.
The incubation method was also used for papain. The inhibition incubation buffer for papain was 50 mM Hepes buffer at pH 7.5, containing 2.5 mM DTT and 2.5 mM EDTA. The assay used the substrate Z-Phe-Arg-pNA (53.7 μM) in the same buffer. The approximate concentration of papain added to the incubation buffer was 0.29 mg/mL. The release of p-nitroanilide was monitored at 405 nm with a Molecular Devices Thermomax microplate reader.

Cathepsin B [3] = molecular target: T1, Cathepsin B; assay: Cathepsin B incubation inhibition assay; format: biochemical; settings: for kobs/[I] Cathepsin B: Table 5, gingipain and clostripain specific inhibitors
Protocol: Papain and Cathepsin B. The incubation method was used to measure the irreversible inhibition of papain and cathepsin B. […] Pseudo first-order inactivation rate constants were obtained from plots of ln vt/vo versus time.

S. mansoni legumain [4] = settings: background art, cited from earlier work
human legumain = molecular target: T3, human legumain (Homo sapiens, UniProt Q99538); settings: synthetic substrate; background art; cited from earlier work
T3 sequence (Q99538 18-323): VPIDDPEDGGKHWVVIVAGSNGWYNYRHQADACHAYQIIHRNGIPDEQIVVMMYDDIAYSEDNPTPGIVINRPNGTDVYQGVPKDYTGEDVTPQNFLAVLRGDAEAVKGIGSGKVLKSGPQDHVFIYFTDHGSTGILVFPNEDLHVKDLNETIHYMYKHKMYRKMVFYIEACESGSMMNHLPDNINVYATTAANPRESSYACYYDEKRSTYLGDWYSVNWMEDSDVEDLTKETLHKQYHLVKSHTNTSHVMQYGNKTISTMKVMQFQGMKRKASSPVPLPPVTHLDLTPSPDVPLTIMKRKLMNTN

Trypsin = settings: Table 5, gingipain and clostripain specific inhibitors
Protocol: Trypsin. Trypsin was purchased from Sigma Chemical Co. (St. Louis, Mo.) as a solid which was dissolved in a solution of 1 mM HCl at a concentration of 1 μM, kept at 0° C., and used immediately. […] The enzymatic assay was followed for 10 min with the 2.5 mM stock inhibitor solution and 1 mM stock substrate solution. The data was processed as a competitive reversible inhibitor by a Dixon plot.

Chain of Gingipain K (Q51817 229-1732 limits assumed): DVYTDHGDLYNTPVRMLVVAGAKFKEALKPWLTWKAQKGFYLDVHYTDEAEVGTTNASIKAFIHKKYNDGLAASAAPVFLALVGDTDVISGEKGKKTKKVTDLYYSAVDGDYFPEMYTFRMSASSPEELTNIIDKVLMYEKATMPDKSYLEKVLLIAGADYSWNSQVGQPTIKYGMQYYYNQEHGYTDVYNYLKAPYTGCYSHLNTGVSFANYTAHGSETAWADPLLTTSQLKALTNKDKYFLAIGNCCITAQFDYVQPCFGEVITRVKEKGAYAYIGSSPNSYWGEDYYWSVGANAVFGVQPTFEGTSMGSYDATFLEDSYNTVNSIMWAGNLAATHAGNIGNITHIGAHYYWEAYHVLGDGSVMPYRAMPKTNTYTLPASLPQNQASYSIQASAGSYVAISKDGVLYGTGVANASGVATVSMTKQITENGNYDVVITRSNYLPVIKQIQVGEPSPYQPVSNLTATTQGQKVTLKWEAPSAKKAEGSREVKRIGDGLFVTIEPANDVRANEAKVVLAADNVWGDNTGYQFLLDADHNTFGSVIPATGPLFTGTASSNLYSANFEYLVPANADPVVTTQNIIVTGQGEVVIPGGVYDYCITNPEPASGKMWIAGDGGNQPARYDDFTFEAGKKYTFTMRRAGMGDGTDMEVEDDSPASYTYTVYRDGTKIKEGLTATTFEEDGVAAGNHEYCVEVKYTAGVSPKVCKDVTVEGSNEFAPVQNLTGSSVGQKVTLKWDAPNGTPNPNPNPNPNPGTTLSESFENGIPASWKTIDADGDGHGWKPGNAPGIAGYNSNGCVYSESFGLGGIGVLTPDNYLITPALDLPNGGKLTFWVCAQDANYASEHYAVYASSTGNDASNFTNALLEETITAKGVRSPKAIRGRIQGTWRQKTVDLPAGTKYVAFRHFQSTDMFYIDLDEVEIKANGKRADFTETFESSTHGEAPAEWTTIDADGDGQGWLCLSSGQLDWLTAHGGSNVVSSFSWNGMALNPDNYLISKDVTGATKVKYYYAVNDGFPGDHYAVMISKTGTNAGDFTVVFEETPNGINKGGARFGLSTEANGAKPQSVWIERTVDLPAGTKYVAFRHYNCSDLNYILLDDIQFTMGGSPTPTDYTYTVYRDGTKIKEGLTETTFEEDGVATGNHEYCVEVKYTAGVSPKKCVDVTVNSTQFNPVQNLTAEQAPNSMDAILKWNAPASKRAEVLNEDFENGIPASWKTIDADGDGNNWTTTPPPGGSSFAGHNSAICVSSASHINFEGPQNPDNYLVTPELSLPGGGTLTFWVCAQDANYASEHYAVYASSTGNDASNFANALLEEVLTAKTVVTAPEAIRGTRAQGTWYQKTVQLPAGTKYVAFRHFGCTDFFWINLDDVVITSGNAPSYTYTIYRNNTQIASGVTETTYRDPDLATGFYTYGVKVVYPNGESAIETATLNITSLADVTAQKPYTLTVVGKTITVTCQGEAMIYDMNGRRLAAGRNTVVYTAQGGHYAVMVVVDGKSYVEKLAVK

Structure (SMILES) | k2 Gingipain K (Gingipain K) | k2 Gingipain R (Gingipain R) | k2 Clostripain (Clostripain) | further results
CC(C)C[C@H](NC(=O)CCc1ccccc1)C(=O)NN(CCCCN)C(=O)C=CC(=O)N(Cc1ccccc1)Cc1ccc2ccccc2c1 | 811,000 M^−1s^−1 | 98 M⁻¹ s⁻¹ | 17,500 M^−1s^−1 | 
CC(C)CC(NC(=O)CCc1ccccc1)C(=O)NN(CCCCN)C(=O)C=CC(=O)N(C)Cc1cccc2ccccc12 (centres unmarked) | 975,000 M^−1s^−1 | 576 M⁻¹ s⁻¹ | 639 M⁻¹ s⁻¹ | 
CC(C)CCNC(=O)[C@H](CC(C)C)NC(=O)/C=C/C(=O)O (stereo in doubt) [fumarate derivative of E-64c, trans-HOOCCH═CH—CO-Leu-NH(CH2)2CH(CH3)2] |  |  |  | kapp cathepsin B (Cathepsin B [1]): 625 M⁻¹ s⁻¹; kapp cathepsin L (cathepsin L): 2272 M⁻¹ s⁻¹; inhibition of clan CD proteases (clan CD proteases): do not inhibit
C[C@H](NC(=O)OCc1ccccc1)C(=O)N[C@@H](C)C(=O)NN(CC(N)=O)C(=O)/C=C/C(=O)N(Cc1ccccc1)Cc1ccccc1 [Cbz-Ala-Ala-AAsn-CH═CH—CON(Bzl)2, N^2—(N-BenzyloxycarbonylaIanylalanyl)-N^1-carbamoylmethyl-N^1-trans-(3-dibenzylcarbamoylpropenoyl)hydrazine] |  |  |  | IC50 (S. mansoni legumain [2]): 45 nM; kinact/KI (S. mansoni legumain [2]; read-out: kobs/[I]): 5800 M⁻¹ s⁻¹; kinact/KI (Gingipain K): 2 M⁻¹ s⁻¹; kinact/KI (Papain): 1 M⁻¹ s⁻¹
C[C@H](NC(=O)OCc1ccccc1)C(=O)N[C@@H](C)C(=O)NN(CC(N)=O)C(=O)/C=C/C(=O)NCCc1ccccc1 [Cbz-Ala-Ala-AAsn-CH═CH—CONHCH2CH2Ph, N^2—(N-Benzyloxycarbonylalanylalanyl)-N^1-carbamoylmethyl-N^1-trans-(3-phenethylcarbamoylpropenoyl)hydrazine] |  |  |  | IC50 (S. mansoni legumain [2]): 600 nM; kobs/[I] Papain (Papain; Table 6, legumain specific inhibitors, NI = no inhibition after 20 minutes of incubation): 12 M⁻¹ s⁻¹; kinact/KI (Papain): 12 M⁻¹ s⁻¹
CCOC(=O)/C=C/C(=O)N(CC(N)=O)NC(=O)[C@H](C)NC(=O)[C@H](C)NC(=O)OCc1ccccc1 [Cbz-Ala-Ala-AAsn-CH═CH—COOEt, N^2—(N-BenzyloxycarbonylalanylaIanyl)-N^1-carbamoylmethyl-N^1-trans-(3-ethylesterpropenoyl)hydrazine] |  |  |  | kinact/KI (Gingipain K): 6 M⁻¹ s⁻¹; kinact/KI (Cathepsin B [3]; pH 6, read-out: kobs/[I] Cathepsin B): 1 M⁻¹ s⁻¹
Cc1cc(=O)oc2cc(NC(=O)[C@H](CC(N)=O)NC(=O)[C@H](C)NC(=O)[C@H](C)NC(=O)OCc3ccccc3)ccc12 [Cbz-Ala-Ala-Asn-AMC] (Cbz-Ala-Ala-Asn-{AMC}) |  |  |  | Km (S. mansoni legumain [4]; synthetic substrate): 90 µM; Km (human legumain): 80 µM
C[C@H](NC(=O)[C@H](Cc1ccccc1)NC(=O)OCc1ccccc1)C(=O)C=[N+]=[N-] [Cbz-Phe-Ala-CHN2] |  |  |  | inhibition of S. mansoni legumain (S. mansoni legumain [4]): not inhibited
CC(C)C[C@H](NC(=O)[C@H]1O[C@@H]1C(=O)O)C(=O)NCCCCN=C(N)N [Example E-64, E-64] |  |  |  | inhibition of S. mansoni legumain (S. mansoni legumain [4]): not inhibited
CC(C)CCNC(=O)[C@H](CC(C)C)NC(=O)[C@H]1O[C@@H]1C(=O)O [Example E-64c, E-64c] |  |  |  | inhibition of clan CD proteases (clan CD proteases): do not inhibit
CCOC(=O)C=CC(=O)N(CCCN)NC(=O)C(C)NC(=O)CCc1ccccc1 (centres unmarked) [PhPr-Ala-AOrn-CH═CH—COOEt] | 632,000 M^−1s^−1 | 18 M⁻¹ s⁻¹ |  | 
CC(C)CC(NC(=O)CCc1ccccc1)C(=O)NN(CCCNC(=N)N)C(=O)C=CC(=O)N(Cc1ccccc1)Cc1ccccc1 (centres unmarked) [PhPr-Leu-AArg-CH═CH—CON(CH2Ph)2] |  | 804,000 M^−1s^−1 | 474,000 M^−1s^−1 | 
CC(C)CC(NC(=O)CCc1ccccc1)C(=O)NN(CCCNC(=N)N)C(=O)C=CC(=O)NCc1ccccc1 (centres unmarked) [PhPr-Leu-AArg-CH═CH—CONHCH2Ph] |  | 555,000 M^−1s^−1 | 287,000 M^−1s^−1 | 
CCOC(=O)C=CC(=O)N(CCCNC(=N)N)NC(=O)C(CC(C)C)NC(=O)CCc1ccccc1 (centres unmarked) [PhPr-Leu-AArg-CH═CH—COOEt] | 1,580 M^−1s^−1 |  | 69,600 M^−1s^−1 | 
CC(C)C[C@H](NC(=O)CCc1ccccc1)C(=O)NN(CCCCN)C(=O)C=CC(=O)N(Cc1ccccc1)Cc1ccc(F)cc1 [PhPr-Leu-ALys-CH═CH—CON(Bzl)-p-CH2C6H4F] | 801,000 M^−1s^−1 | 75 M⁻¹ s⁻¹ | 13,800 M^−1s^−1 | 
CC(C)CC(NC(=O)CCc1ccccc1)C(=O)NN(CCCCN)C(=O)C=CC(=O)N(Cc1cccc2ccccc12)Cc1cccc2ccccc12 (centres unmarked) [PhPr-Leu-ALys-CH═CH—CON(CH2-1-naphthyl2] | 1,890,000 M^−1s^−1 | 214 M⁻¹ s⁻¹ | 2,250 M^−1s^−1 | 
CC(C)CC(NC(=O)CCc1ccccc1)C(=O)NN(CCCCN)C(=O)C=CC(=O)N(Cc1ccccc1)Cc1ccccc1 (centres unmarked) [PhPr-Leu-ALys-CH═CH—CON(CH2Ph)2] | 2,130,000 M^−1s^−1 | 65 M⁻¹ s⁻¹ | 20,000 M^−1s^−1 | 
CC(C)CC(NC(=O)CCc1ccccc1)C(=O)NN(CCCCN)C(=O)C=CC(=O)N(C)Cc1ccccc1 (centres unmarked) [PhPr-Leu-ALys-CH═CH—CON(Me)CH2Ph] | 1,360,000 M^−1s^−1 | 79 M⁻¹ s⁻¹ | 6,000 M^−1s^−1 | 
CC(C)C[C@H](NC(=O)CCc1ccccc1)C(=O)NN(CCCCN)C(=O)C=CC(=O)NCc1ccccc1 [PhPr-Leu-ALys-CH═CH—CONHCH2Ph] | 236,000 M^−1s^−1 | 20 M⁻¹ s⁻¹ | 1,050 M^−1s^−1 | 
CC(C)CC(NC(=O)CCc1ccccc1)C(=O)NN(CCCCN)C(=O)C=CC(=O)OCc1ccccc1 (centres unmarked) [PhPr-Leu-ALys-CH═CH—COOCH2Ph] |  | 632 M⁻¹ s⁻¹ | 20,500 M^−1s^−1 | 
CCOC(=O)C=CC(=O)N(CCCCN)NC(=O)[C@H](CC(C)C)NC(=O)CCc1ccccc1 [PhPr-Leu-ALys-CH═CH—COOEt] | 3,280,000 M^−1s^−1 | 289 M⁻¹ s⁻¹ | 40,750 M^−1s^−1 | kobs/[I] Cathepsin B (Cathepsin B [3]): 9 M⁻¹ s⁻¹; kobs/[I] Trypsin (Trypsin): 17 M⁻¹ s⁻¹
CC(C)C[C@H](NC(=O)CCc1ccccc1)C(=O)NN(CCCN)C(=O)C=CC(=O)N(Cc1ccccc1)Cc1ccccc1 [PhPr-Leu-AOrn-CH═CH—CON(CH2Ph)2] | 61,600 M^−1s^−1 | 541 M⁻¹ s⁻¹ | 541 M⁻¹ s⁻¹ | 
CC(C)C[C@H](NC(=O)CCc1ccccc1)C(=O)NN(CCCN)C(=O)C=CC(=O)NCc1ccccc1 [PhPr-Leu-AOrn-CH═CH—CONHCH2Ph] | 24,700 M^−1s^−1 | 71 M⁻¹ s⁻¹ |  | 
CCOC(=O)C=CC(=O)N(CCCN)NC(=O)[C@H](CC(C)C)NC(=O)CCc1ccccc1 [PhPr-Leu-AOrn-CH═CH—COOEt] | 927,000 M^−1s^−1 | 32 M⁻¹ s⁻¹ | 788 M⁻¹ s⁻¹ | kobs/[I] Cathepsin B (Cathepsin B [3]): 3 M⁻¹ s⁻¹
